Test results from patent US5360803A, “Composition and method for treating cancer” (Dan Farber Cancer Institute, priority 1992, dated 1994).
Like-named read-outs stand apart in the source and are kept apart here.

Legend:
EJ cells = assay: colony assay of Example 1 with human bladder carcinoma EJ cell line; type: cell-based; settings: for Selectivity: CV-1/EJ; for IC50: Homo sapiens, EJ, 24 h, Table IV, human bladder carcinoma, 24 hours treatment;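 as to all read-outs here: colony formation assay with 24 h compound exposure at 37 °C, then 7–10 days drug-free regrowth, colonies stained with crystal violet, controls given medium alone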
CX-1 cells = assay: selective killing assay, colony number reduced to 50% of control, human colon carcinoma cell line CX-1; type: cell-based; settings: for Selectivity (ratio of IC50 for CV-1 and IC50 for CX-1): CV-1/CX-1; for IC50: Homo sapiens, CX-1, Table III, human colon carcinoma, 24 hours treatment, colony count after 7 to 10 days;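 as to all read-outs here: colonies stained with crystal violet and counted, control cells given medium alone, exposure at 37 °C, normal monkey kidney epithelial CV-1 cells as the non-cancer comparator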
Method: Human colon carcinoma cell line CX-1 or normal monkey kidney epithelial cell line CV-1 was chosen as representatives of cancer cells and normal cells, respectively. […] CX-1 cells (2,000 cells/well) and CV-1 cells (1,000 cells/well) were plated in 24-well plastic culture plates. […] The control received culture media only. Cells were treated with compounds of General Formulas (I) to (V) at 37° C. for 24 hours. After rinsing with fresh culture medium three times, the cells were further incubated at 37° C. for 7 to 10 days. Cell colonies were fixed and stained with 2% crystal violet in 70% ethanol for 10 minutes and rinsed in water. […] The selectivity is defined as the ratio of IC50 for CV-1 and IC50 for CX-1.

human melanoma LOX = assay: survival of nude mice implanted with human melanoma LOX; type: in vivo, male athymic Swiss nu/nu mouse (human tumor); settings: Mus musculus, ip, 24 h, read-out: T/C
Method: LOX, a human melanoma cell line, grown subcutaneously in nude mice was excised, trypsinized to yield a single cell suspension using a metal grid with a […] mesh. […] Five million viable trypan blue negative cells made up in 0.1 ml of Dulbecco modified Eagle medium (DMFE) were injected into the peritoneal cavity of a male athymic Swiss nu/nu mouse. The control group and each treatment group consisted of 5 to 10 mice. Treatment was commenced the following day by intraperitoneal injection.
Ten control mice received 0.25 ml of 2% dextrose on these days the treated groups were injected with the compounds of this invention. […] T/C is the ratio, expressed as a percentage of the mean survival age of the treated group to the mean survival age of the untreated control group.

LOX cells = assay: colony assay of Example 1 with human melanoma LOX cell line; type: cell-based; settings: for Selectivity: CV-1/LOX; for IC50: Homo sapiens, LOX, 24 h, Table V, human melanoma, 24 hours treatment;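 as to all read-outs here: colony formation assay with 24 h exposure at 37 °C, then 7 to 10 days of regrowth, crystal violet staining of colonies, control wells given medium alone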
CV-1 cells = assay: selective killing assay, colony number reduced to 50% of control, normal monkey kidney epithelial cell line CV-1; type: cell-based; settings: Primates, 24 hours treatment
Source text: (§1) The control received culture media only.

CRL 1420 cells = assay: colony assay of Example 1 with human pancreatic carcinoma CRL 1420 cell line; type: cell-based;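 also: colony formation assay, cells exposed for 24 h then regrown 7 to 10 days without compound, colonies stained with crystal violet, control given medium alone, normal reference CV-1 monkey kidney epithelial cells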
MCF-7 cells = assay: colony assay of Example 1 with human breast carcinoma MCF-7 cell line; type: cell-based
Source text: as §1

[1] = CV-1, Table III, normal monkey kidney epithelial cells, colony count after 7 to 10 days
[2] = 5 mg/kg i.p. on day 1, 4, 8, 10, 12

CCn1c(=Cc2oc3cc4ccccc4cc3[n+]2CC)sc(=C2Sc3ccccc3N2C)c1=O [Compound 22]
Selectivity (EJ cells): 100
IC50 (EJ cells): 0.2 µg/mL
Selectivity (ratio of IC50 for CV-1 and IC50 for CX-1) (CX-1 cells): 1000
IC50 (CX-1 cells): 0.01 µg/mL
response vs control in vivo at 5 mg/kg (human melanoma LOX; 5 mg/kg i.p. on day 1, 4, 8, 11): 179%
Selectivity (LOX cells): 100
IC50 (LOX cells): 0.1 µg/mL
IC50 (CV-1 cells; CV-1, 24 h, Table IV): 20 µg/mL
IC50 (CV-1 cells; CV-1, 24 h, Table V): 10 µg/mL
IC50 (CV-1 cells; [1]): 10 µg/mL

CCn1c(=Cc2sc3ccc(Cl)cc3[n+]2CC)sc(=C2Sc3ccc4ccccc4c3N2C)c1=O [Compound 94]
Selectivity (ratio of IC50 for CV-1 and IC50 for CX-1) (CX-1 cells): 400
IC50 (CX-1 cells): 0.05 µg/mL
response vs control in vivo at 10 mg/kg (human melanoma LOX; 10 mg/kg i.p. on day 1, 3, 6, 8, 10, 13, 15): 161%
IC50 (CV-1 cells; [1]): 20 µg/mL

CCn1c(=Cc2cccc[n+]2CC)sc(=C2Oc3c(ccc4ccccc34)N2C)c1=O [Compound 214]
response vs control in vivo at 10 mg/kg (human melanoma LOX; 10 mg/kg i.p. on day 1, 4, 8, 10, 12): > 300%
Selectivity (LOX cells): 500
IC50 (LOX cells): 0.04 µg/mL
IC50 (CV-1 cells; CV-1, 24 h, Table V): 20 µg/mL

CCn1c(=Cc2cc[n+](CC)c3ccccc23)sc(=C2Sc3ccc4ccccc4c3N2C)c1=O [Compound 90]
Selectivity (ratio of IC50 for CV-1 and IC50 for CX-1) (CX-1 cells): 200
IC50 (CX-1 cells): 0.04 µg/mL
response vs control in vivo at 5 mg/kg (human melanoma LOX; 5 mg/kg i.p. on day 1, 8, 13): 163%
IC50 (CV-1 cells; [1]): 8 µg/mL

CCn1c(=Cc2oc3c4ccccc4ccc3[n+]2CC)sc(=C2Sc3ccc4ccccc4c3N2C)c1=O [Compound 85]
Selectivity (EJ cells): 857
IC50 (EJ cells): 0.007 µg/mL
Selectivity (ratio of IC50 for CV-1 and IC50 for CX-1) (CX-1 cells): 750
IC50 (CX-1 cells): 0.008 µg/mL
response vs control in vivo at 5 mg/kg (human melanoma LOX; 5 mg/kg i.p. on day 1, 4, 8, 11, 15): 174%
Selectivity (LOX cells): > 600
IC50 (LOX cells): < 0.01 µg/mL
Selectivity (CRL 1420 cells; CV-1/CRL-1420): 600
IC50 (CRL 1420 cells; Homo sapiens, 24 h, Table VII, human pancreatic carcinoma, 24 hours treatment): 0.01 µg/mL
IC50 (CV-1 cells; [1]): 6 µg/mL

CCn1c(=Cc2cc[n+](CC)c3ccccc23)sc(=C2C=Cc3ccccc3N2C)c1=O [Compound 256]
Selectivity (ratio of IC50 for CV-1 and IC50 for CX-1) (CX-1 cells): 200
IC50 (CX-1 cells): 0.02 µg/mL
response vs control in vivo at 5 mg/kg (human melanoma LOX; [2]): 171%
IC50 (CV-1 cells; [1]): 4 µg/mL

CCn1c(=Cc2sc3ccc4ccccc4c3[n+]2CC)sc(=C2Oc3ccc4ccccc4c3N2C)c1=O [Compound 116]
Selectivity (MCF-7 cells; CV-1/MCF-7): 150
IC50 (MCF-7 cells; Homo sapiens, MCF7, 24 h, Table VI, human breast carcinoma, 24 hours treatment): 0.04 µg/mL
IC50 (CV-1 cells; CV-1, 24 h, Table VI): 6 µg/mL

CCn1c(=Cc2sc3ccccc3[n+]2CC)sc(=C2Sc3ccc(Cl)cc3N2C)c1=O [Compound 244]
IC50 (CX-1 cells): 10 µg/mL
response vs control in vivo at 10 mg/kg (human melanoma LOX; 10 mg/kg i.p. on day 1, 2, 6, 8, 13): 150%
IC50 (CV-1 cells; [1]): 0.05 µg/mL

CCn1c(=Cc2oc3ccc4ccccc4c3[n+]2CC)sc(=C2Oc3ccc4ccccc4c3N2C)c1=O [Compound 87]
Selectivity (ratio of IC50 for CV-1 and IC50 for CX-1) (CX-1 cells): 400
IC50 (CX-1 cells): 0.05 µg/mL
response vs control in vivo at 10 mg/kg (human melanoma LOX; 10 mg/kg i.p. on day 1, 3, 6, 9, 10): 150%
IC50 (CV-1 cells; [1]): 20 µg/mL

CCn1c(=Cc2scc(C)[n+]2CC)sc(=C2Sc3ccccc3N2C)c1=O [Compound 339]
response vs control in vivo at 5 mg/kg (human melanoma LOX; [2]): > 340%
Selectivity (LOX cells): 333
IC50 (LOX cells): 0.03 µg/mL
IC50 (CV-1 cells; CV-1, 24 h, Table V): 10 µg/mL

CCn1c(=Cc2sc3ccc4ccccc4c3[n+]2CC)sc(=C2Sc3ccccc3N2C)c1=O [Compound 338]
response vs control in vivo at 4 mg/kg (human melanoma LOX; 4 mg/kg i.p. on day 1, 3, 4, 6, 8, 10, 13): 194%
Selectivity (LOX cells): 400
IC50 (LOX cells): 0.005 µg/mL
IC50 (CV-1 cells; CV-1, 24 h, Table V): 2 µg/mL
